Source: publication PMC9400670, “Establishing the selective phospholipid membrane coordination, permeation and lysis properties for a series of ‘druggable’ supramolecular self-associating antimicrobial amphiphiles” (Chemical Science, 2022)
Like-named read-outs stand apart in the source and are kept apart here.

Columns and labels:
PE:PG mix nanodiscs = assay: Phospholipid nanodisc 1H NMR CPMG coordination assay, PE:PG mix nanodiscs; format: binding; settings: SSA 100 µM
From the text: Finally, to establish how any single SSA structural variation affects the coordination of an individual salt component to the surface of a phospholipid membrane, the binding of the anionic and cationic components of SSAs 5–12 with nanodiscs comprised of PC, PG or the PE : PG mix (Table 2) was studied. Nanodiscs were synthesised from synthetic vesicles of the relevant phospholipid composition. For full synthetic procedures and nanodisc characterisation please see ESI (Section 13). ^†[34,35]
Styrene-maleic acid (SMA) nanodiscs are small biomimetic scaffolds with a hydrodynamic diameter ≈ 10 nm. They consist of a single disc-shaped planar phospholipid bilayer, ‘belted’ in this instance with a synthetic SMA co-polymer. Here nanodiscs of a specific phospholipid composition were titrated against a solution of SSAs 5–12 (0.10 mM) in a sodium phosphate buffer (20 mM) with NaCl (20 mM) at pH 7.4. This solution was supplemented with 5% D2O, to enable NMR locking and 4,4-dimethyl4-silapentane-1-sulfonic acid (DSS – 0.02 mM) to act as an internal standard. The nanodiscs were then titrated against the SSA, while the SSA concentration was maintained as constant, well below the CMC (Table 3).[38] A 1D ^1H NMR with a Carr–Purcell–Meiboom–Gill sequence (CPMG) filter (300 ms),[36,48] modified with a watergate element was then obtained for each experimental data point. The watergate element was used to allow suppression of the water signal, whereas the CPMG filter enabled the suppression of those resonances from molecular species with long correlation times, which in this instance correlate to the signals of those SSAs coordinated to the nanodisc, rather than those which exist as free species in solution. Comparative integration of the resonances corresponding to the SSA cation or anion, standardised against the DSS internal standard, permits the percentage of the individual SSA components coordinated to the phospholipid nanodisc to be established with respect to increasing nanodisc concentration.
However, when considering the 1/EC50 for the SSA cationic component (Fig. 10b), the reverse is true. This is perhaps expected, but nevertheless despite the identical experimental conditions, including the same TBA counter cation across SSAs 5–12, there is a marked difference in the 1/EC50 obtained, where the only difference is the SSA anion present. This is most noticeable for the series of SSA titrations involving the PE : PG mix (Table 2) nanodiscs. The only variation within this set of titrations is the structure of the SSA anion; we therefore conclude that the SSA anion is influencing SSA cation nanodisc coordination events. This observation provides evidence for the presence of further complex interactions informing SSA:nanodisc coordination processes. […]
Data were acquired in endpoint mode. All experiments were repeated in triplicate […]
Nanodisc preparation: Lipid films were resuspended in Buffer (20 mM NaCl, 20 mM NaH 2PO4, pH 7.4) and sonicated for 1 hour, at a 5:1 ratio, SMA was added and incubated at 37 °C for 1 hour. Dialysed overnight in 5 L of the same buffer in 10 KDa cut-off dialysis tubing, concentrated, and underwent gel filtration size exclusion chromatography on a Superdex 200 10/300 GL column (GE Healthcare) in the same buffer, whilst monitoring absorbance at 260 nm. Nanodisc quantification carried out via monitoring of absorbance at 260 nm using a calibration curve.2
1H NMR CPMG: 1H NMR CPMG3,4 spectra were obtained with a Bruker Avance III […] spectrometer equipped with a TCIP cryoprobe at 298 K. Samples were supplemented with 5 % D 2O and 0.02 mM 4,4-dimethyl4-silapentane-1-sulfonic acid (DSS). The standard zgprcpmg pulse sequence from the Bruker library was modified with a watergate element to allow suppressi on of the water signal and was used for all experiments. Although this sequence is readily obtainable, we are happy to provide it on request. The P1 pulses were 9 µs at a power of 7.9 W. Presaturation was applied between […]

[1] = tested on: E. coli polar lipid vesicles; assay: Synthetic phospholipid vesicle membrane binding assay (fluorescence polarisation), E. coli polar vesicles; settings: lipid vesicles added to SSA (0.15 mM); n = 3; error = standard error; SSA alone set to 100 mP
Description: For intrinsically fluorescent SSAs 5, 6 and 8–12, FP titration experiments enabled the observation of SSA: phospholipid vesicle interactions. Here, an increase in FP value indicates an increase in the apparent size of the SSA as it interacts with the phospholipid vesicle. […]
Fluorescence polarisation: Lipid films were resuspended in Buffer (150 mM KCl, 10 mM HEPES, pH 7.4, 2 mM EGTA) and subjected to 9 freeze-thaw cycles in liquid nitrogen and extruded 20 times through a 200 nm polycarbonate membrane. Black bottom 96-well plates were prepared by serially diluting desired vesicle solution across the plate, the appropriate SSA solution (100 µL, 0.15 mM) was added to each well to give a total well volume of 200 µL. Fluorescent SSA solutions were set to a FP value of 100 mP. Data were acquired in endpoint mode. […]

[2] = concentration of nanodisc coordinating 50 % of the SSA anion, Hill Plot fit, Vmax fixed 100 %, read-out: EC50 PE:PG mix, anionic SSA component
[3] = concentration of nanodisc coordinating 50 % of the SSA cation, Hill Plot fit, Vmax fixed 100 %, read-out: EC50 PE:PG mix, cationic SSA component

Compound	EC50 (PE:PG mix nanodiscs; [2])	EC50 (PE:PG mix nanodiscs; [3])	increase in FP, E. coli polar [1]	EC50 (PE:PG mix nanodiscs; experimental endpoint 4.00 µM nanodisc, read-out: EC50 PE:PG mix, cationic SSA component)
O=C(NCS(=O)(=O)O)Nc1ccccc1-c1nc2ccccc2s1 [SSA 5]	1140 nM	930 nM	40 ± 4 mP	
Cc1ccc2nc(-c3ccc(NC(=O)NCC(=O)O)cc3)sc2c1 [SSA 11]	720 nM	2510 nM	79 ± 1 mP	
Cc1ccc2nc(-c3ccc(NC(=S)NCS(=O)(=O)O)cc3)sc2c1 [SSA 12]	260 nM	370 nM	176 ± 2 mP	
O=C(NCS(=O)(=O)O)Nc1ccc(-c2nc3ccccc3s2)cc1 [SSA 8]	2200 nM		27 ± 2 mP	
Cc1ccc2nc(-c3ccc(NC(=O)NCS(=O)(=O)O)cc3)sc2c1 [SSA 6]	460 nM		35 ± 3 mP	> 4000 nM
Cc1ccc2nc(-c3ccc(NC(=O)NCCCS(=O)(=O)O)cc3)sc2c1 [SSA 10]	500 nM	2920 nM	25 ± 14 mP	
Cc1ccc2nc(-c3ccc(NC(=O)NCCC(=O)O)cc3)sc2c1 [SSA 9]	730 nM		53 ± 3 mP	
Cc1ccc2nc(NC(=O)NCS(=O)(=O)O)sc2c1 [SSA 7]		3440 nM		
